Assay results from PubChem BioAssay (NCI).
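Where inhibition never reached the appropriate level, the endpoint shown equals the highest concentration tested. Otherwise, values were interpolated linearly from a five-concentration, 48-hour dose response in 96-well plates. GI50: concentration for 50% inhibition of growth. TGI denotes the concentration required for complete inhibition of growth.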

Legend:
Experiment in all cases: growth of human tumour cells (NCI), 48 h
ACHN renal = tested on: ACHN renal
BT-549 breast = tested on: BT-549 breast
HCC-2998 colon = tested on: HCC-2998 colon
HOP-92 NSCLC = tested on: HOP-92 NSCLC
M14 melanoma = tested on: M14 melanoma
NCI/ADR-RES ovarian = tested on: NCI/ADR-RES ovarian
OVCAR-5 ovarian = tested on: OVCAR-5 ovarian
SF-295 CNS = tested on: SF-295 CNS
SK-MEL-28 melanoma = tested on: SK-MEL-28 melanoma
UACC-62 melanoma = tested on: UACC-62 melanoma

Row | Compound | GI50 (ACHN renal) [µM] | TGI (ACHN renal) [µM] | GI50 (BT-549 breast) [µM] | TGI (BT-549 breast) [µM] | GI50 (HCC-2998 colon) [µM] | TGI (HCC-2998 colon) [µM] | GI50 (HOP-92 NSCLC) [µM] | TGI (HOP-92 NSCLC) [µM] | GI50 (M14 melanoma) [µM] | TGI (M14 melanoma) [µM] | GI50 (NCI/ADR-RES ovarian) [µM] | TGI (NCI/ADR-RES ovarian) [µM] | GI50 (OVCAR-5 ovarian) [µM] | TGI (OVCAR-5 ovarian) [µM] | GI50 (SF-295 CNS) [µM] | TGI (SF-295 CNS) [µM] | GI50 (SK-MEL-28 melanoma) [µM] | TGI (SK-MEL-28 melanoma) [µM] | GI50 (UACC-62 melanoma) [µM] | TGI (UACC-62 melanoma) [µM]
1 | CCOc1ccc2c(c1)C(=O)c1c-2n(CCCN)c(=O)c2cc([N+](=O)[O-])ccc12 | 0.0101 | 1.17 | 0.473 | 1.62 | 0.183 | 1.4 | 0.0969 | 1.91 | 0.0343 | 1.19 | 0.0558 | 1.82 | 0.324 | 1.82 | 0.0146 | 1.19 | 1.37 | 2.89 | 0.0768 | 1.82
2 | OCc1ncc(-c2ccccc2)s1 | > 100 | > 100 | > 100 | > 100 | > 100 | > 100 | 76.5 | > 100 | > 100 | > 100 | > 100 | > 100 | > 100 | > 100 | > 100 | > 100 | > 100 | > 100 | > 100 | > 100
3 | CCOC(=O)Nc1ccc(C(=O)/C=C/c2ccccc2)cc1 | 22.2 | 52.3 | 26.5 | 67.8 | 17.1 | 31.6 | 11.2 | 66.5 | 19.1 | 44.3 | 24.2 | 65.8 | 28.9 | 90.5 | 41.7 | > 100 | 59 | > 100 | 20.1 | > 100
4 | N=C1N=C(N)S/C1=C\c1ccc2ncccc2c1 | > 25 | > 25 | > 25 | > 25 | > 25 | > 25 | > 25 | > 25 | > 25 | > 25 | > 25 | > 25 | > 25 | > 25 | > 25 | > 25 | > 25 | > 25 | > 25 | > 25
5 | CC(C)c1ccc(/C=N/N=C(N)N)cc1 | 11.7 | 25.4 | 13.2 | 30 | 2.04 | 4.78 | 1.35 | 7.27 | 2.02 | 4.2 | 6.33 | 23.2 | 12.9 | 30.2 | 8.13 | 22.4 | 8.41 | 21 | 7.73 | 21.3
6 | C[n+]1cc2cc3c(cc2c2ccccc21)OCO3 | 41.7 | > 100 | 2.95 | 16.3 | 3.81 | 19.2 | 2.77 | 23.8 | 16 | > 100 | > 100 | > 100 | 16.5 | > 100 | 3.17 | 30.3 | 3.49 | 14.3 | 3.97 | 16.4
7 | COc1ccc(C2CC(c3cccc(OC)c3)=NN2C(=O)c2cc(OC)c(OC)c(OC)c2)cc1 (configuration not stated) | 5.54 | > 100 | 2.05 | > 100 | 4.27 | > 100 | 1.04 | > 100 | 1.56 | > 29.3 | 1.55 | > 21.1 | > 21.2 | > 100 | 0.654 | > 100 | 12.5 | > 100 | 1.1 | > 100
8 | CC(=O)OC1CC2(O)C(CCC3(C)C(c4ccc(=O)oc4)CCC32O)C2(C)CCC(OC3OC(CO)C(O)C(O)C3O)C=C12 (configuration not stated) | < 0.01 | 0.036 | 0.0101 | 0.0661 | 0.0735 | 0.419 | 0.0494 | 0.318 | 0.0356 | 0.129 | 0.0172 | 0.0541 | 0.044 | 0.168 | 0.0302 | 0.168 | 0.049 | 0.231 | 0.03 | 0.101
9 | O=C(Nc1nc(-c2ccccc2)cs1)c1cc(O)c(O)c(O)c1 | 2.47 | 56.3 | 3.46 | 31.4 | 10.1 | 36.3 | 1.56 | 9.66 | 7.9 | 44 | 3.7 | > 100 | 18.2 | 47.7 | 6.97 | 55.1 | 7.18 | 60.8 | 3.02 | 16.5
10 | CSC(=NC#N)S/C=C/C(=O)c1cccc2ccccc12 | 28.3 | 82 | 20.1 | 56 | 63 | > 100 | 19.3 | 66.6 | 29.9 | > 100 | 40.8 | > 100 | 28.3 | 82.9 | > 100 | > 100 | 28.7 | 73.4 | 27.7 | > 100
11 | COc1cc2oc(-c3cccc(C(=O)Nc4ccc(C)cc4)c3)cc(=O)c2c(OC)c1OC | 2.69 | > 100 | 1.71 | 54.5 | 3.53 | 17.8 | 1.55 | 5.46 | 0.503 | 2.23 | 1.46 | > 100 | 2.17 | > 100 | 1.63 | 3.56 | 1.67 | 4.11 | 2.35 | 6.42
12 | C=C1[C@@H](O)C[C@H]2C(C)(C)C[C@H](Cl)C[C@]2(C)[C@H]1C[C@H](O)[C@H]1CC(=O)NC1=O | 0.0166 | 0.176 | 0.0265 | 0.155 | 0.0173 | 0.117 | < 0.0115 | 0.179 | < 0.0119 | 0.0492 | < 0.0447 | 0.508 | 0.0269 | 0.395 | < 0.0123 | 0.0748 | 0.0161 | 0.127 | 0.0194 | 0.15
13 | O=C(NCCNC(=O)c1ccc(F)cc1)Nc1ccc(-n2cc(-c3ccncc3)c(-c3ccc(Cl)c(O)c3)n2)cc1 | 2.32 | 9.64 | 0.338 | 2.91 | 0.597 | 2.85 | 0.465 | 5.23 | 0.288 | 1.25 | > 100 | > 100 | 1.03 | 9.82 | 0.354 | 1.7 | 1.38 | > 100 | 0.555 | 2.32
14 | COc1ccc2c(c1)C(=O)c1c-2n(CCCN=[N+]=[N-])c(=O)c2cc(N)ccc12 | > 100 | > 100 | > 100 | > 100 | > 100 | > 100 | 58.8 | > 100 | > 100 | > 100 | > 100 | > 100 | > 100 | > 100 | > 100 | > 100 |  | > 100 | > 100 | > 100
15 | Cc1ccc(NC(=O)N2CCCCC2)cc1[N+](=O)[O-] | > 100 | > 100 | > 100 | > 100 | > 100 | > 100 | > 100 | > 100 | > 100 | > 100 | > 100 | > 100 | > 100 | > 100 | > 100 | > 100 | > 100 | > 100 | > 100 | > 100
16 | Cn1ccc2c3c(=O)cc[nH]c3ccc21 | > 100 | > 100 | > 100 | > 100 | > 100 | > 100 | 69.2 | > 100 | > 100 | > 100 | > 100 | > 100 | > 100 | > 100 | > 100 | > 100 | 12.7 | > 100 | > 100 | > 100
17 | CC(=O)N1N=C(c2ccc(Nc3nc(Nc4ccc(F)cc4)nc(Nc4ccc(Cl)cc4)n3)cc2)CC1c1ccc(N(C)C)cc1 (configuration not stated) | 4.03 | > 58.4 | 5.05 | 17.5 | 2.26 | 7.45 | 2.87 | 19.1 | 3.05 | 10.8 | 1.65 | 15.7 | 14 | 43.6 | 9.73 | 37.4 | 11.7 | 40.1 | 2.26 | 7.79
18 | Cc1[nH]c(=O)nc(N/N=C/c2ccc(Cl)cc2)c1C(=O)Nc1ccc(Cl)cc1 |  | > 89.2 |  | > 100 |  | > 100 |  | 77.8 |  | 40.3 |  | > 100 |  | > 100 |  | 43.4 |  | > 86.1 |  | > 100
19 | O=C1c2ccccc2C(=O)c2sc(Nc3ccc(Cl)cc3)nc21 |  | 3.06 | 2.87 | 11.7 |  | 7.43 | 10.3 | 22.9 |  | 3.96 | 2.1 | 5.52 |  | 7.37 |  | 15.8 |  | 3.36 |  | 4.05
